Where “and” joins values, the source holds several entries; their conditions need not be identical. Equal values may be shown once. Read-outs that look alike come from different tables or passages of the source.
Assays:
[1] = Spot urinary PAGN level by dose category, HPN-100-012 safety extension; format: in vivo, human; details: pediatric subjects under 6 years, spot urine at 0 hours after overnight fast
Procedure: Pediatric subjects under 6 years of age from the HPN-100-012 safety extension study were divided into three dosing groups: less than 6 mL/m^2, 6-10 mL/m^2, and greater than 10 mL/m^2. Spot urine samples were collected from subjects at 0 hours (i.e., after an overnight fast), and urinary PAGN levels were measured.

[2] = Spot urinary PAGN level by age group, all studies; format: in vivo, human; details: spot urine after overnight fast
Procedure: Subjects from all studies who had spot urine samples were divided into three age groups: less than 2 years of age; 2 to less than 6 years of age; and 6 years of age and older. Spot urine samples were collected from subjects after an overnight fast, and urinary PAGN levels were measured.

[3] = Spot urinary PAGN level by BSA group, all UCD studies and healthy volunteer study HPN-100-010; format: in vivo, human; details: spot urine at 24 hours after overnight fast
Procedure: (§1) Subjects from all UCD studies and the healthy volunteer study (HPN-100-010) were divided into two groups based on their BSA: less than or equal to 1.3 m^2 (≦1.3 m^2) and greater than 1.3 m^2 (>1.3 m^2). Spot urine samples were collected from subjects at 24 hours (i.e., after an overnight fast), and urinary PAGN levels were measured.

[4] = Spot urinary PAGN level by BSA group, subjects 2 years of age and older; format: in vivo, human
Procedure: as §1, with “Subjects in Example 4” for “Subjects”, “(HPN-100-010) who were 2 years of age and older” for “(HPN-100-010)”

ammonia = details: cited from earlier work
[5] = phase 1; dosages equivalent to the highest approved NaPBA dosage of 20 g/day; cited from earlier work
[6] = BSA > 1.3 m^2, spot urine at 24 hours after overnight fast
[7] = BSA ≦ 1.3 m^2, spot urine at 24 hours after overnight fast

O=C(CCCc1ccccc1)OCC(COC(=O)CCCc1ccccc1)OC(=O)CCCc1ccccc1 [HPN-100, glyceryl tri-[4-phenylbutyrate]]
Urinary PAGN, 10th percentile ([1]; dose 6-10 mL/m^2): 1288 µg/mL
Urinary PAGN, 25th percentile ([1]; dose 6-10 mL/m^2): 3053 µg/mL
Urinary PAGN, 75th percentile ([1]; dose 6-10 mL/m^2): 20796 µg/mL
Urinary PAGN, 90th percentile ([1]; dose 6-10 mL/m^2): 24429 µg/mL
Urinary PAGN, mean ([1]; dose 6-10 mL/m^2): 12313 µg/mL
Urinary PAGN, median ([1]; dose 6-10 mL/m^2): 12144 µg/mL
Urinary PAGN, 10th percentile ([1]; dose <6 mL/m^2): 643 µg/mL
Urinary PAGN, 25th percentile ([1]; dose <6 mL/m^2): 1256 µg/mL
Urinary PAGN, 75th percentile ([1]; dose <6 mL/m^2): 14290 µg/mL
Urinary PAGN, 90th percentile ([1]; dose <6 mL/m^2): 20797 µg/mL
Urinary PAGN, mean ([1]; dose <6 mL/m^2): 8353 µg/mL
Urinary PAGN, median ([1]; dose <6 mL/m^2): 3298 µg/mL
Urinary PAGN, 10th percentile ([1]; dose >10 mL/m^2): 264 µg/mL
Urinary PAGN, 25th percentile ([1]; dose >10 mL/m^2): 6990 µg/mL
Urinary PAGN, 75th percentile ([1]; dose >10 mL/m^2): 26247 µg/mL
Urinary PAGN, 90th percentile ([1]; dose >10 mL/m^2): 28084 µg/mL
Urinary PAGN, mean ([1]; dose >10 mL/m^2): 16842 µg/mL
Urinary PAGN, median ([1]; dose >10 mL/m^2): 17089 µg/mL
U-PAGN, 10th percentile ([2]; age group 2-<6 years): 1717 µg/mL
U-PAGN, 25th percentile ([2]; age group 2-<6 years): 5146 µg/mL
U-PAGN, 75th percentile ([2]; age group 2-<6 years): 20603 µg/mL
U-PAGN, 90th percentile ([2]; age group 2-<6 years): 27728 µg/mL
U-PAGN, maximum ([2]; age group 2-<6 years): 43372 µg/mL
U-PAGN, mean ([2]; age group 2-<6 years): 13420 µg/mL
U-PAGN, median ([2]; age group 2-<6 years): 12114 µg/mL
U-PAGN, minimum ([2]; age group 2-<6 years): 119 µg/mL
U-PAGN, 10th percentile ([2]; age group <2 years): 3265 µg/mL
U-PAGN, 25th percentile ([2]; age group <2 years): 8996 µg/mL
U-PAGN, 75th percentile ([2]; age group <2 years): 25019 µg/mL
U-PAGN, 90th percentile ([2]; age group <2 years): 28028 µg/mL
U-PAGN, maximum ([2]; age group <2 years): 44298 µg/mL
U-PAGN, mean ([2]; age group <2 years): 17330 µg/mL
U-PAGN, median ([2]; age group <2 years): 17229 µg/mL
U-PAGN, minimum ([2]; age group <2 years): 348 µg/mL
U-PAGN, 10th percentile ([2]; age group ≧6 years): 1564 µg/mL
U-PAGN, 25th percentile ([2]; age group ≧6 years): 4032 µg/mL
U-PAGN, 75th percentile ([2]; age group ≧6 years): 13846 µg/mL
U-PAGN, 90th percentile ([2]; age group ≧6 years): 21633 µg/mL
U-PAGN, maximum ([2]; age group ≧6 years): 60960 µg/mL
U-PAGN, mean ([2]; age group ≧6 years): 10103 µg/mL
U-PAGN, median ([2]; age group ≧6 years): 7185 µg/mL
U-PAGN, minimum ([2]; age group ≧6 years): 642 µg/mL
U-PAGN, 5th percentile ([3]; BSA > 1.3 m^2): 3379.24 µg/mL
U-PAGN, 10th percentile ([3]; BSA > 1.3 m^2): 4078.79 µg/mL
U-PAGN, 25th percentile ([3]; BSA > 1.3 m^2): 5259 µg/mL and 5259.01 µg/mL
U-PAGN, 50th percentile ([3]; BSA > 1.3 m^2): 7748.84 µg/mL
U-PAGN, 75th percentile ([3]; BSA > 1.3 m^2): 11916.08 µg/mL
U-PAGN, 90th percentile ([3]; BSA > 1.3 m^2): 15993.51 µg/mL
U-PAGN, 95th percentile ([3]; BSA > 1.3 m^2): 20320.32 µg/mL
U-PAGN, maximum ([3]; BSA > 1.3 m^2): 30304.04 µg/mL
U-PAGN, mean ([3]; BSA > 1.3 m^2): 9058.68 µg/mL
U-PAGN, minimum ([3]; BSA > 1.3 m^2): 1157.49 µg/mL
U-PAGN, 5th percentile ([3]; BSA ≦ 1.3 m^2): 1061.84 µg/mL
U-PAGN, 10th percentile ([3]; BSA ≦ 1.3 m^2): 3645.97 µg/mL
U-PAGN, 25th percentile ([3]; BSA ≦ 1.3 m^2): 8390 µg/mL and 8390.07 µg/mL
U-PAGN, 50th percentile ([3]; BSA ≦ 1.3 m^2): 17075.13 µg/mL
U-PAGN, 75th percentile ([3]; BSA ≦ 1.3 m^2): 25465.73 µg/mL
U-PAGN, 90th percentile ([3]; BSA ≦ 1.3 m^2): 30830 µg/mL
U-PAGN, 95th percentile ([3]; BSA ≦ 1.3 m^2): 35516.41 µg/mL
U-PAGN, maximum ([3]; BSA ≦ 1.3 m^2): 44298.26 µg/mL
U-PAGN, mean ([3]; BSA ≦ 1.3 m^2): 17547.48 µg/mL
U-PAGN, minimum ([3]; BSA ≦ 1.3 m^2): 119.47 µg/mL
U-PAGN, 5th percentile [4, 6]: 3379.24 µg/mL
U-PAGN, 10th percentile [4, 6]: 4078.79 µg/mL
U-PAGN, 25th percentile [4, 6]: 5259 µg/mL and 5259.01 µg/mL
U-PAGN, 75th percentile [4, 6]: 11916.08 µg/mL
U-PAGN, 90th percentile [4, 6]: 15993.51 µg/mL
U-PAGN, 95th percentile [4, 6]: 20320.32 µg/mL
U-PAGN, maximum [4, 6]: 30304.04 µg/mL
U-PAGN, mean [4, 6]: 9058.68 µg/mL
U-PAGN, median [4, 6]: 7748.84 µg/mL
U-PAGN, minimum [4, 6]: 1157.49 µg/mL
U-PAGN, 5th percentile [4, 7]: 621.6 µg/mL
U-PAGN, 10th percentile [4, 7]: 3479.50 µg/mL
U-PAGN, 25th percentile [4, 7]: 7412 µg/mL and 7412.48 µg/mL
U-PAGN, 75th percentile [4, 7]: 23635.08 µg/mL
U-PAGN, 90th percentile [4, 7]: 29835.07 µg/mL
U-PAGN, 95th percentile [4, 7]: 33943.83 µg/mL
U-PAGN, maximum [4, 7]: 43372.15 µg/mL
U-PAGN, mean [4, 7]: 16186.11 µg/mL
U-PAGN, median [4, 7]: 15869.85 µg/mL
U-PAGN, minimum [4, 7]: 119.5 µg/mL
Mean ammonia values (ammonia; HPN-100-012 safety extension, pediatric UCD patients under six years): within normal limits
Ammonia control compared with NaPBA (ammonia; phase 2 HPN-100-005, 11 pediatric UCD patients age six years and up, PBA equimolar dosage): at least equivalent to NaPBA
Ammonia control compared with NaPBA (ammonia; phase 2 studies overall, equivalent dosages): at least equal to NaPBA
Ammonia control compared with NaPBA (ammonia; phase 3 HPN-100-006, 45 adult UCD patients, PBA equivalent dosage): non-inferior to NaPBA
Mean ammonia levels (ammonia; phase 3 extended dosing HPN-100-007 and HPN-100-005 safety extension, adult and pediatric UCD subjects): within normal limit
Safety of administration [5]: established the safety

Reference: patent US20180015065A1, “METHODS OF TREATING UREA CYCLE DISORDERS” (Horizon Therapeutics, LLC, priority 2013, published 2018)
